# Measurements from patent US7691601B2, “Medium for detecting and/or identifying of microorganisms” (priority 2003, dated 2010).
# Tests used:
# [1] = test system: free esterases in a stool sample; assay: Coloration at the point of deposit of the stool on Salmonella detection medium (Magenta C8); format: biochemical; design: key to Deposit coloration: 0=no coloration; 0.5=trace of coloration; 1=weak coloration; 2=strong coloration; details: for Deposit coloration: Table 2
# Procedure: (§1) Preparation of the detection medium: A volume of 250 ml of detection medium is prepared from a powdered medium having the following composition:
# (§2) Melting is carried out at 100° C., and the medium is autoclaved at 121° C. for 15 minutes. The additives are then added to the medium: Magenta C8 (500 mg/l; B-7102, BIOSYNTH, Staad, Switzerland); X-glucoside (75 mg/l; B-7250, BIOSYNTH, Staad, Switzerland); cefsulodine (10 mg/l; C 4786, Sigma, St Quentin Fallavier, France) and various concentrations of the inhibitor O,O-diethyl p-nitrophenyl phosphate (Paraoxon® ethyl; CAS No. 311-45-5; 36186, Riedel-de Haën, St Quentin Fallavier, France; 0; 1; 5 or 10 mg/l).
# (§3) The various detection media thus obtained are then poured into Petri dishes.
# (§4) Seeding of Salmonella bacteria: 10 μl of stools are deposited onto a Petri dish, this stool suspension is mixed or not mixed with 10 μl of a suspension of Salmonella (0.5 McF) and isolated as 3 dials on a Petri dish. Various […] and various Salmonella strains originating from the applicant's collection are used according to this protocol. The Petri dishes are incubated at 37° C. for 24 hours. The appearance of a coloration at the point of deposit of the stool (“deposit” column) and at the Salmonella colony (“colony” column) is read according to a semi-quantitative scale: • 0=no coloration • 0.5=trace of coloration • 1=weak coloration • 2=strong coloration The results obtained are given in Table 1.
# (§5) Melting is carried out at 100° C., and the medium is autoclaved at 121° C. for 15 minutes. The additives are then added to the medium: Magenta C8 (500 mg/l; B-7102, BIOSYNTH, Staad, Switzerland); X-glucoside (75 mg/l; B-7250, BIOSYNTH, Staad, Switzerland); cefsulodine (10 mg/l; C 4786, Sigma, St Quentin Fallavier, France) and various concentrations of the inhibitor O,O-dimethyl p-nitrophenyl phosphate (Paraoxon® methyl; CAS No. 950-35-6; Riedel-de Haën, St Quentin Fallavier, France; 5, 10, 25 mg/l).
# (§6) Seeding of Salmonella bacteria: The Petri dishes are inoculated, incubated and read as in Example 1.
# (§7) Preparation of the detection medium: 250 ml of the medium of Example 1, in which the O,O-diethyl p-nitrophenyl phosphate is replaced with various concentrations of O,O-di-(2-chloroethyl)-O-(3-chloro-4-methylcoumarin-7-yl)phosphate (Haloxon®; CAS No. 321-55-1; R276995, Sigma, St Quentin Fallavier, France; 0; 1; 10; 100 or 1000 mg/l), are prepared according to the method of Example 1.
# (§8) The various selection media thus obtained are then poured into Petri dishes.
# [2] = test system: Salmonella Enteritidis; assay: Coloration of Salmonella Enteritidis colonies on detection medium; format: cell-based; design: key: 0=no coloration; 0.5=trace of coloration; 1=weak coloration; 2=strong coloration
# Procedure: as §1, §2, §3, §4, §5, §6, §7, §8
# [3] = test system: Salmonella Typhi; assay: Coloration of Salmonella Typhi colonies on detection medium; format: cell-based; design: key: 0=no coloration; 0.5=trace of coloration; 1=weak coloration; 2=strong coloration
# Procedure: as §1, §2, §3, §4, §5, §6, §7, §8
# [4] = test system: free esterases in stools; assay: Coloration at the point of deposit of the stool on Candida detection medium; format: biochemical; details: summary in words
# Procedure: as §1
# (§9) Melting is carried out at 100° C., and the medium is autoclaved at 121° C. for 15 minutes. The additives are then added to the medium: Magenta C8 (500 mg/l; B-7102, BIOSYNTH, Staad, Switzerland); X-glucoside (75 mg/l; B-7250, BIOSYNTH, Staad, Switzerland); cefsulodine (10 mg/l; C 4786, Sigma, St Quentin Fallavier, France), and also the esterase inhibitor: • ? O,O-diethyl p-nitrophenyl phosphate: 5 mg/l • ? O,O-dimethyl p-nitrophenyl phosphate: 25 mg/l or • ? O,O-di-(2-chloroethyl)-O-(3-chloro-4-methylcoumarin-7-yl)phosphate: 75 mg/l
# as §8
# (§10) Seeding of yeast of the Candida genus: 10 μl of stools are deposited onto a Petri dish, and this stool suspension is mixed or not mixed with 10 μl of a suspension of Candida and isolated as 3 dials on a Petri dish. Various stools and various strains of Candida genus originating from the applicant's collection are used according to this protocol. The Petri dishes are incubated at 37° C. for 24 hours.
# (§11) The appearance of a coloration at the point of deposit of the stool and in the Candida colonies is read according to a semi-quantitative scale: • 0=absence of coloration • 0.5=trace coloration • 1=weak coloration • 2=strong coloration.
# [5] = test system: Candida krusei; assay: Coloration of Candida krusei colonies on detection medium; format: cell-based; design: key: 0=absence of coloration; 0.5=trace coloration; 1=weak coloration; 2=strong coloration; details: Table 4, 25 mg/l
# Procedure: as §1, §9, §8, §10, §11
# [6] = Colonies column read for stool without added strain, Candida detection medium; design: key: 0=absence of coloration; 0.5=trace coloration; 1=weak coloration; 2=strong coloration; details: Table 4, 25 mg/l, no strain
# Procedure: as §1, §9, §8, §10, §11
# [7] = test system: free esterases in stools; assay: Coloration at the point of deposit of the stool on Candida detection medium; format: biochemical; design: key: 0=absence of coloration; 0.5=trace coloration; 1=weak coloration; 2=strong coloration; details: Table 4, 25 mg/l, no strain
# Procedure: as §1, §9, §8, §10, §11
smiles,measurement,setting,value
"COP(=O)(OC)Oc1ccc([N+](=O)[O-])cc1 [O,O-dimethyl p-nitrophenyl phosphate]",Deposit coloration,"[1]; 5 mg/l, stool C, Salmonella Enteritidis",1
same,Deposit coloration,"[1]; 5 mg/l, stool C, Salmonella Typhi",1
same,Deposit coloration,"[1]; 5 mg/l, stool C, no strain",1
same,Deposit coloration,"[1]; 5 mg/l, stool D, Salmonella Enteritidis",1
same,Deposit coloration,"[1]; 5 mg/l, stool D, Salmonella Typhi",1
same,Deposit coloration,"[1]; 5 mg/l, stool D, no strain",1
same,Deposit coloration,"[1]; 10 mg/l, stool C, Salmonella Enteritidis",0.5
same,Deposit coloration,"[1]; 10 mg/l, stool C, Salmonella Typhi",0.5
same,Deposit coloration,"[1]; 10 mg/l, stool C, no strain",0.5
same,Deposit coloration,"[1]; 10 mg/l, stool D, Salmonella Enteritidis",1
same,Deposit coloration,"[1]; 10 mg/l, stool D, Salmonella Typhi",1
same,Deposit coloration,"[1]; 10 mg/l, stool D, no strain",1
same,Deposit coloration,"[1]; 25 mg/l, stool C, Salmonella Enteritidis",0
same,Deposit coloration,"[1]; 25 mg/l, stool C, Salmonella Typhi",0
same,Deposit coloration,"[1]; 25 mg/l, stool C, no strain",0
same,Deposit coloration,"[1]; 25 mg/l, stool D, Salmonella Enteritidis",0
same,Deposit coloration,"[1]; 25 mg/l, stool D, Salmonella Typhi",0
same,Deposit coloration,"[1]; 25 mg/l, stool D, no strain",0
same,Aspecific enzymatic reactions due to the presence of free enzymes,"[1]; stools, Salmonella detection medium, summary in words",greatly inhibited
same,Colonies coloration,"[2]; Table 2, 5 mg/l, stool C",2
same,Colonies coloration,"[2]; Table 2, 5 mg/l, stool D",2
same,Colonies coloration,"[2]; Table 2, 10 mg/l, stool C",2
same,Colonies coloration,"[2]; Table 2, 10 mg/l, stool D",2
same,Colonies coloration,"[2]; Table 2, 25 mg/l, stool C",2
same,Colonies coloration,"[2]; Table 2, 25 mg/l, stool D",2
same,Colonies coloration,"[3]; Table 2, 5 mg/l, stool C",0.5
same,Colonies coloration,"[3]; Table 2, 5 mg/l, stool D",0.5
same,Colonies coloration,"[3]; Table 2, 10 mg/l, stool C",1
same,Colonies coloration,"[3]; Table 2, 10 mg/l, stool D",0.5
same,Colonies coloration,"[3]; Table 2, 25 mg/l, stool C",0.5
same,Colonies coloration,"[3]; Table 2, 25 mg/l, stool D",0.5
same,Aspecific enzymatic reactions due to the presence of free enzymes,[4],greatly inhibited
same,Colonies coloration,[5]; stool A,0.5
same,Colonies coloration,[5]; stool B,0.5
same,Colonies coloration,[6]; stool A,0
same,Colonies coloration,[6]; stool B,0
same,Deposit coloration,[7]; stool A,0
same,Deposit coloration,[7]; stool B,0
